In patent US20170166558A1, “O-GLCNAC TRANSFERASE (OGT) INHIBITORS AND USES THEREOF” (President and Fellows of Harvard College, priority 2014, published 2017):
Like-named read-outs stand apart in the source and are kept apart here.

Target: T1, sOGT (Homo sapiens, UniProt O15294)
T1 sequence (O15294 1-665 isoform O15294-4): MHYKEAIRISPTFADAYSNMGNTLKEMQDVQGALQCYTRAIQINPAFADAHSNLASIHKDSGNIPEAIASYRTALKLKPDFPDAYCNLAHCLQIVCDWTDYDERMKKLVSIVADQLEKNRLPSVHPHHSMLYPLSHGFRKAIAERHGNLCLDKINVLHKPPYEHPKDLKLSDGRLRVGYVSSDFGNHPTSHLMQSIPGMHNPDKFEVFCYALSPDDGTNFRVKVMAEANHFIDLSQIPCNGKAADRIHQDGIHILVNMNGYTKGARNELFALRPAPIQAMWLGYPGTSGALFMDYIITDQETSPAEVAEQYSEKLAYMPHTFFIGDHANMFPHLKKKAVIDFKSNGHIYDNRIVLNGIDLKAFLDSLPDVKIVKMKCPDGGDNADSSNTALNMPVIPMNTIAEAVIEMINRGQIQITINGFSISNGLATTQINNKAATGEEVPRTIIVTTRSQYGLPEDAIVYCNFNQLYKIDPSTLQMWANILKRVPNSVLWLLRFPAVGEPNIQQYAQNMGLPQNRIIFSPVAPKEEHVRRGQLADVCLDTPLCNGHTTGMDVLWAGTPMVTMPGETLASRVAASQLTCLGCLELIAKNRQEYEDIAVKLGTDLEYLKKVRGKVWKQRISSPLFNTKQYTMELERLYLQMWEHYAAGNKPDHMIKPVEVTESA
Assay: Fluorescence polarization displacement screen with fluorescein-linked UDP-GlcNAc analog
Type: binding
Details: for remaining activity at 100 µM: read-out: % OGT activity (100 μM treatment)

Structure (SMILES) | % OGT activity (100 μM treatment) | remaining activity at 100 µM (100 μM treatment) [%] | other results
O=C([C@@H](NS(=O)(=O)c1ccc2[nH]c(=O)ccc2c1)c1ccccc1)N(Cc1ccco1)Cc1cccs1 | – | – | remaining activity at 100 µM: 7%
O=C([C@H](NS(=O)(=O)c1ccc2[nH]c(=O)ccc2c1)c1ccc(O)cc1)N(Cc1ccco1)Cc1cccs1 | – | 0.7 | –
O=C([C@H](NS(=O)(=O)c1ccc2[nH]c(=O)[nH]c(=O)c2c1)c1ccccc1)N(Cc1ccco1)Cc1cccs1 | – | 68 | –
O=C([C@H](NS(=O)(=O)c1ccc2[nH]c(=O)ccc2c1)c1ccccc1)N(Cc1ccco1)Cc1cccs1 | – | – | remaining activity at 100 µM: 1.73%
O=C([C@H](NS(=O)(=O)c1ccc2[nH]c(=O)ccc2c1)c1cccs1)N(Cc1ccco1)Cc1cccs1 | – | 7 | –
COc1ccc([C@@H](NS(=O)(=O)c2ccc3[nH]c(=O)ccc3c2)C(=O)N(Cc2ccco2)Cc2cccs2)cc1 | – | 2.9 | –
O=C([C@H](NS(=O)(=O)c1ccc2[nH]c(=O)ccc2c1)c1cccc(F)c1)N(Cc1ccco1)Cc1cccs1 | – | 2.6 | –
CN1CCN(C(=O)[C@H](NS(=O)(=O)c2ccc3[nH]c(=O)ccc3c2)c2ccccc2)CC1 | – | 47 | –
CN(Cc1cccs1)C(=O)[C@H](NS(=O)(=O)c1ccc2[nH]c(=O)ccc2c1)c1ccccc1 | – | 2.5 | –
O=C([C@H](NS(=O)(=O)c1ccc2[nH]c(=O)ccc2c1)c1ccccc1)N1CCOCC1 | – | 47 | –
O=C(NCc1ccco1)[C@H](NS(=O)(=O)c1ccc2[nH]c(=O)ccc2c1)c1ccccc1 | – | 64 | –
O=C([C@H](NS(=O)(=O)c1ccc2[nH]c(=O)ccc2c1)c1ccccc1)N1CCCCC1 | – | 22 | –
CCCC[C@@H](NS(=O)(=O)c1ccc2[nH]c(=O)ccc2c1)C(=O)N(Cc1ccco1)Cc1cccs1 | – | 8 | –
O=C(C1c2ccccc2CN1S(=O)(=O)c1ccc2[nH]c(=O)ccc2c1)N(Cc1ccco1)Cc1cccs1 (stereo not shown) [drawing 109] | – | 56 | –
O=C(C1c2ccccc2CN1S(=O)(=O)c1ccc2[nH]c(=O)ccc2c1)N(Cc1ccco1)Cc1cccs1 (stereo not shown) [drawing 114] | 43% | – | –
O=C(C(NS(=O)(=O)c1ccc2[nH]c(=O)ccc2c1)c1ccccc1C(F)(F)F)N(Cc1ccco1)Cc1cccs1 (stereo not shown) [drawing 119] | 0.7% | – | –
O=C(C(NS(=O)(=O)c1ccc2[nH]c(=O)ccc2c1)c1ccccc1C(F)(F)F)N(Cc1ccco1)Cc1cccs1 (stereo not shown) [drawing 121] | 11% | – | –
O=C(C(NS(=O)(=O)c1ccc2[nH]c(=O)ccc2c1)c1ccc(C(F)(F)F)cc1)N(Cc1ccco1)Cc1cccs1 (stereo not shown) [drawing 122] | 33% | – | –
O=C(C(NS(=O)(=O)c1ccc2[nH]c(=O)ccc2c1)c1ccccc1C(F)(F)F)N(Cc1ccco1)Cc1cccs1 (stereo not shown) [drawing 125] | 38% | – | –
O=C(C(NS(=O)(=O)c1ccc2[nH]c(=O)ccc2c1)c1ccc(C(F)(F)F)cc1)N(Cc1ccco1)Cc1cccs1 (stereo not shown) [drawing 126] | 54% | – | –
O=C(C(NS(=O)(=O)c1ccc2[nH]c(=O)ccc2c1)c1cccc(C(F)(F)F)c1)N(Cc1ccco1)Cc1cccs1 (stereo not shown) [drawing 128] | 7.4% | – | –
Cc1cccc(C(NS(=O)(=O)c2ccc3[nH]c(=O)ccc3c2)C(=O)N(Cc2ccco2)Cc2cccs2)c1 (stereo not shown) [drawing 131] | No inhibition | – | –
Cc1ccccc1C(NS(=O)(=O)c1ccc2[nH]c(=O)ccc2c1)C(=O)N(Cc1ccco1)Cc1cccs1 (stereo not shown) [drawing 132] | 4.5% | – | –
Cc1cccc(C(NS(=O)(=O)c2ccc3[nH]c(=O)ccc3c2)C(=O)N(Cc2ccco2)Cc2cccs2)c1 (stereo not shown) [drawing 135] | No inhibition | – | –
Cc1ccccc1C(NS(=O)(=O)c1ccc2[nH]c(=O)ccc2c1)C(=O)N(Cc1ccco1)Cc1cccs1 (stereo not shown) [drawing 136] | 10% | – | –
O=C([C@@H](Cc1ccccc1)NS(=O)(=O)c1ccc2[nH]c(=O)ccc2c1)N(Cc1ccco1)Cc1cccs1 [drawing 149] | – | 53 | –

The next lines start with results.

% OGT activity (100 μM treatment) | remaining activity at 100 µM (100 μM treatment) [%] | Structure (SMILES) | other results
No inhibition | – | O=C([C@@H](NS(=O)(=O)c1ccc2[nH]c(=O)[nH]c(=O)c2c1)c1ccccc1)N(Cc1ccco1)Cc1cccs1 | –
– | 5 | O=C([C@H](NS(=O)(=O)c1ccc2[nH]c(=O)ccc2c1)c1ccc(F)cc1)N(Cc1ccco1)Cc1cccs1 | –
– | 22 | O=C([C@H](NS(=O)(=O)c1ccc2[nH]c(=O)ccc2c1)c1ccc(Cl)cc1)N(Cc1ccco1)Cc1cccs1 | –
– | 22 | O=C([C@H](NS(=O)(=O)c1ccc2[nH]c(=O)ccc2c1)C1CCCCC1)N(Cc1ccco1)Cc1cccs1 | –
– | 4 | O=C([C@H](NS(=O)(=O)c1ccc2[nH]c(=O)ccc2c1)c1ccccc1Cl)N(Cc1ccco1)Cc1cccs1 | –
– | 0.9 | O=C([C@@H](NS(=O)(=O)c1ccc2[nH]c(=O)ccc2c1)c1ccc(F)cc1)N(Cc1ccco1)Cc1cccs1 | –
– | 26 | CCNC(=O)[C@H](NS(=O)(=O)c1ccc2[nH]c(=O)ccc2c1)c1ccccc1 | –
– | 2.5 | COc1cccc([C@@H](NS(=O)(=O)c2ccc3[nH]c(=O)ccc3c2)C(=O)N(Cc2ccco2)Cc2cccs2)c1 | –
No inhibition | – | O=C(NCc1cccs1)[C@H](NS(=O)(=O)c1ccc2[nH]c(=O)ccc2c1)c1ccccc1 | –
– | 5 | CN(Cc1ccco1)C(=O)[C@H](NS(=O)(=O)c1ccc2[nH]c(=O)ccc2c1)c1ccccc1 | –
– | 47 | O=C(C1c2ccccc2CCN1S(=O)(=O)c1ccc2[nH]c(=O)ccc2c1)N(Cc1ccco1)Cc1cccs1 (stereo not shown) [drawing 110] | –
65% | – | O=C(C1c2ccccc2CCN1S(=O)(=O)c1ccc2[nH]c(=O)ccc2c1)N(Cc1ccco1)Cc1cccs1 (stereo not shown) [drawing 115] | –
29% | – | O=C(C(NS(=O)(=O)c1ccc2[nH]c(=O)ccc2c1)c1cccc(C(F)(F)F)c1)N(Cc1ccco1)Cc1cccs1 (stereo not shown) [drawing 127] | –
0.5% | – | O=C(C(NS(=O)(=O)c1ccc2[nH]c(=O)ccc2c1)c1ccccc1F)N(Cc1ccco1)Cc1cccs1 (stereo not shown) [drawing 129] | –
11% | – | Cc1ccc(C(NS(=O)(=O)c2ccc3[nH]c(=O)ccc3c2)C(=O)N(Cc2ccco2)Cc2cccs2)cc1 (stereo not shown) [drawing 130] | –
24% | – | O=C(C(NS(=O)(=O)c1ccc2[nH]c(=O)ccc2c1)c1ccccc1F)N(Cc1ccco1)Cc1cccs1 (stereo not shown) [drawing 133] | –
66% | – | Cc1ccc(C(NS(=O)(=O)c2ccc3[nH]c(=O)ccc3c2)C(=O)N(Cc2ccco2)Cc2cccs2)cc1 (stereo not shown) [drawing 134] | –
